Experimental data from paper PMC9389372 (RSC Advances, 2022).

Columns and labels:
Type in all cases: biochemical
[1] = biological target: human butyrylcholinesterase (Homo sapiens, UniProt P06276); assay: BChE inhibition, modified Ellman's spectrophotometric method; settings: for inhibition at 100 µM / inhibition at 1000 µM: read-out: BChE % inhibition
[2] = biological target: T1, MAO-B (Homo sapiens, UniProt P27338); assay: MAO-B inhibition, in vitro fluorometric method; settings: for inhibition at 1000 µM: read-out: MAO-B % inhibition, 10^−3 M; for inhibition at 100 µM: read-out: MAO-B % inhibition, 10^−4 M
T1 sequence (P27338 1-520): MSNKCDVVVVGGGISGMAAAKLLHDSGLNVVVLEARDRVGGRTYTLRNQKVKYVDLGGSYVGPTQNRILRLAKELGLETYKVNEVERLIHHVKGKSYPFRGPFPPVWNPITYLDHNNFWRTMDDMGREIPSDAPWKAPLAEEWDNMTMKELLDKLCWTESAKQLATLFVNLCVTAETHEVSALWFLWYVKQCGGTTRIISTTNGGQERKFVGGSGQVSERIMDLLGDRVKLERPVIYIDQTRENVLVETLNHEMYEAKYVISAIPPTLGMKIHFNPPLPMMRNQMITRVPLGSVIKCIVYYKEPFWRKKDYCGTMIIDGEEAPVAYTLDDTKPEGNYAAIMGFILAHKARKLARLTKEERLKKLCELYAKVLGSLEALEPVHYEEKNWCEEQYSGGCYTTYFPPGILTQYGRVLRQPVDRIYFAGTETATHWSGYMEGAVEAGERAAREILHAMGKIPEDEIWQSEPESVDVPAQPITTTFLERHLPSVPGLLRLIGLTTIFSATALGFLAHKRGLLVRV

[3] = biological target: beta amyloid 1–42 (Aβ42) (Homo sapiens, UniProt P05067); assay: fluorometric beta amyloid 1–42; settings: for inhibition at 0.01 µM / inhibition at 0.1 µM / inhibition at 1 µM / inhibition at 10 µM: read-out: Percent inhibition of beta amyloid 1–42 (Aβ42) peptide aggregation
[4] = biological target: T2, MAO-A (Homo sapiens, UniProt P21397); assay: MAO-A inhibition, in vitro fluorometric method; settings: for inhibition at 100 µM / inhibition at 1000 µM: read-out: MAO-A % inhibition
T2 sequence (P21397 1-527): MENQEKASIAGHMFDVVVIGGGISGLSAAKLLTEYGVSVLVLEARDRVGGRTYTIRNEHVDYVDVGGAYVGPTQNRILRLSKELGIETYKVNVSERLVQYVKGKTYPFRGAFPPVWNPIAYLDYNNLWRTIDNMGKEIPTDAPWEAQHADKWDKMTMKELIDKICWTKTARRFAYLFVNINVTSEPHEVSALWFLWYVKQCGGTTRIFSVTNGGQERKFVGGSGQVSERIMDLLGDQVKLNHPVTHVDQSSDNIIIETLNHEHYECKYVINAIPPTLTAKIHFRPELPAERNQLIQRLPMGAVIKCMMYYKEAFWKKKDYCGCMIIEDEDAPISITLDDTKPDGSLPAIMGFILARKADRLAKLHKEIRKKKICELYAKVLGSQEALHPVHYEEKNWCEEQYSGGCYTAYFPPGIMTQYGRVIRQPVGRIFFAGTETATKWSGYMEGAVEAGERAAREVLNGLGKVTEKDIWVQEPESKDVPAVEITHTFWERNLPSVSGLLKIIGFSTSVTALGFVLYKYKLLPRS

[5] = biological target: Human acetylcholinesterase (Homo sapiens, UniProt P22303); assay: AChE inhibition, modified Ellman's spectrophotometric method; settings: for inhibition at 1000 µM: read-out: AChE % inhibition, 10^−3 M; for inhibition at 100 µM: read-out: AChE % inhibition, 10^−4 M
Chain of Human acetylcholinesterase (P22303 32-614): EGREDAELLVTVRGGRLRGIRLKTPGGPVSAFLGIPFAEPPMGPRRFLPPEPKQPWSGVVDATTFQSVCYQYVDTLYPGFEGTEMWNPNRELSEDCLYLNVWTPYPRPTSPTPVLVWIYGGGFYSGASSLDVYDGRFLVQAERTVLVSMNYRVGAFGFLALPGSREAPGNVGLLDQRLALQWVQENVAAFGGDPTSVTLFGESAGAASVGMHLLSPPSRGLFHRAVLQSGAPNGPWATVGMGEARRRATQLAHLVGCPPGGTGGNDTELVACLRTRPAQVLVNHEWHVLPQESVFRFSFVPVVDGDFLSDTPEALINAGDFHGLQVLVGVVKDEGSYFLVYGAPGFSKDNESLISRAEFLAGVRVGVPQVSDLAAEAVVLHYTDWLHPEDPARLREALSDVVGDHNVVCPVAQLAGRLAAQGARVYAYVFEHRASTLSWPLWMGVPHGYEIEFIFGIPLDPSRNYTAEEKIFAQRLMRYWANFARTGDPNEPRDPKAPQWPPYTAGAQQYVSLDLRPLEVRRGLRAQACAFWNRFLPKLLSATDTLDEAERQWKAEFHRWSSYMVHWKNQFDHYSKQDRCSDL

Chain of beta amyloid 1–42 (Aβ42) (P05067 672-713): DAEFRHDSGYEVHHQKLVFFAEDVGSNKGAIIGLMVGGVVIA
Chain of human butyrylcholinesterase (P06276 29-602): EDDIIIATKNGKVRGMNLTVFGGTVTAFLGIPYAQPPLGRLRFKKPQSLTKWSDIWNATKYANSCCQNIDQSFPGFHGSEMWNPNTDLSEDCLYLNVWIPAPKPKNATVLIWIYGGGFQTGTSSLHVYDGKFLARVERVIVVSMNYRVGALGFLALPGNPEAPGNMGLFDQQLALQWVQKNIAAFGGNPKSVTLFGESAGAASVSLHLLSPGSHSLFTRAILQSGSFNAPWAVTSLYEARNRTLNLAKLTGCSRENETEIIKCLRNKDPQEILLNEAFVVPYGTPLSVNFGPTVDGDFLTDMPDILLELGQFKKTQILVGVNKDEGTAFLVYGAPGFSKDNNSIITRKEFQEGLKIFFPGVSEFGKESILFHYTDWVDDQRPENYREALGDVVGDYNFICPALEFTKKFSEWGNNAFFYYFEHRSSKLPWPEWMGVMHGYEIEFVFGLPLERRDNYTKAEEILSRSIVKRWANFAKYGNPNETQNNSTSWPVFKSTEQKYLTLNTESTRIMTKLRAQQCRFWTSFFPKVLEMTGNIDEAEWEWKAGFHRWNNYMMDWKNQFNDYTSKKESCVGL

Compound | IC50 [1] | inhibition at 100 µM [1] | inhibition at 1000 µM [1] | IC50 [2] | IC50 [3] | inhibition at 0.01 µM [3] | inhibition at 0.1 µM [3] | inhibition at 1 µM [3] | inhibition at 10 µM [3] | IC50 [4] | inhibition at 100 µM [4] | inhibition at 1000 µM [4] | IC50 [5] | inhibition at 1000 µM [5] | inhibition at 1000 µM [2] | inhibition at 100 µM [2] | inhibition at 100 µM [5]
CN1CCN(Cc2ccc(C(=O)Nc3nc4ccccc4s3)cc2)CC1 [4a, N-(Benzo[d]thiazol-2-yl)-4-((4-methylpiperazine-1-yl)methyl)benzamide] | > 1000 µM | 26.5 ± 0.8% | 38.6 ± 0.7% | 0.0674 ± 0.0031 µM | 0.256 ± 0.011 µM | 47.4 ± 1.1% | 70.4 ± 2.8% | 86.4 ± 2.7% | 91.9 ± 3.1% | > 100 µM | 38.6 ± 0.7% | 55.3 ± 0.9% | 0.0563 ± 0.0025 µM | 93.3 ± 1.4% |  |  | 
CCN1CCN(Cc2ccc(C(=O)Nc3nc4ccccc4s3)cc2)CC1 [4b, N-(Benzo[d]thiazol-2-yl)-4-((4-ethylpiperazine-1-yl)methyl)benzamide] | > 1000 µM | 24.4 ± 0.6% | 35.7 ± 0.9% | > 100 µM |  |  |  |  |  | > 1000 µM | 36.4 ± 0.8% | 46.5 ± 0.8% | > 100 µM | 85.6 ± 1.3% | 73.3 ± 1.2% | 42.3 ± 0.8% | 47.6 ± 0.8%
C=CCN1CCN(Cc2ccc(C(=O)Nc3nc4ccccc4s3)cc2)CC1 [4c, 4-((4-Allylpiperazine-1-yl)methyl)-N-(benzo[d]thiazol-2-yl)benzamide] | > 1000 µM | 20.2 ± 0.7% | 30.9 ± 0.7% | > 100 µM |  |  |  |  |  | > 1000 µM | 34.6 ± 0.8% | 48.3 ± 0.9% | > 100 µM | 82.8 ± 1.5% | 69.6 ± 1.2% | 40.3 ± 0.9% | 48.2 ± 0.9%
C#CCN1CCN(Cc2ccc(C(=O)Nc3nc4ccccc4s3)cc2)CC1 [4d, N-(Benzo[d]thiazol-2-yl)-4-((4-(prop-2-yn-1-yl)piperazine-1-yl)methyl)benzamide] | > 1000 µM | 28.4 ± 0.9% | 37.1 ± 0.8% | 0.11 ± 0.0043 µM | 0.242 ± 0.0097 µM | 36.2 ± 1% | 55.2 ± 1.4% | 81.5 ± 2.5% | 89.8 ± 3% | > 100 µM | 39.7 ± 0.9% | 57.6 ± 0.9% | 0.0896 ± 0.0032 µM | 91.6 ± 1.3% |  |  | 
CC(C)N1CCN(Cc2ccc(C(=O)Nc3nc4ccccc4s3)cc2)CC1 [4e, N-(Benzo[d]thiazol-2-yl)-4-((4-isopropylpiperazine-1-yl)methyl)benzamide] | > 1000 µM | 26.8 ± 0.7% | 39.1 ± 0.8% | > 100 µM |  |  |  |  |  | > 1000 µM | 33.8 ± 0.7% | 44.7 ± 0.9% | > 100 µM | 83.9 ± 1.7% | 72.7 ± 1.1% | 44.6 ± 0.8% | 46.9 ± 0.8%
CN(C)CCCN1CCN(Cc2ccc(C(=O)Nc3nc4ccccc4s3)cc2)CC1 [4g, N-(Benzo[d]thiazol-2-yl)-4-((4-(3-(dimethylamino)propyl)piperazine-1-yl)methyl)benzamide] | > 1000 µM | 30.9 ± 0.8% | 41.5 ± 0.8% | > 100 µM |  |  |  |  |  | > 100 µM | 40.1 ± 0.9% | 64.9 ± 1.1% | 0.0367 ± 0.0014 µM | 94.3 ± 1% | 74.2 ± 1% | 42.5 ± 0.9% | 
COc1ccc2sc(NC(=O)c3ccc(CN4CCN(C)CC4)cc3)nc2c1 [4h, N-(5-Methoxybenzo[d]thiazol-2-yl)-4-((4-methylpiperazine-1-yl)methyl)benzamide] | > 1000 µM | 27 ± 0.7% | 33.5 ± 0.8% | 0.0851 ± 0.0038 µM | 0.296 ± 0.013 µM | 41.8 ± 1% | 64.8 ± 1.9% | 83.2 ± 3.3% | 90.7 ± 2.9% | > 100 µM | 38.5 ± 0.6% | 60.5 ± 0.9% | 0.0649 ± 0.0029 µM | 92.3 ± 1.1% |  |  | 
CCN1CCN(Cc2ccc(C(=O)Nc3nc4cc(OC)ccc4s3)cc2)CC1 [4i, 4-((4-Ethylpiperazine-1-yl)methyl)-N-(5-methoxybenzo[d]thiazol-2-yl)benzamide] | > 1000 µM | 25.2 ± 0.9% | 39.8 ± 0.9% | > 100 µM |  |  |  |  |  | > 1000 µM | 30.6 ± 0.7% | 43.8 ± 0.9% | > 100 µM | 86.9 ± 1.2% | 75.6 ± 1.2% | 41.7 ± 0.9% | 48 ± 0.9%
C=CCN1CCN(Cc2ccc(C(=O)Nc3nc4cc(OC)ccc4s3)cc2)CC1 [4j, 4-((4-Allylpiperazine-1-yl)methyl)-N-(5-methoxybenzo[d]thiazol-2-yl)benzamide] | > 1000 µM | 22.6 ± 0.8% | 32.9 ± 0.8% | > 100 µM |  |  |  |  |  | > 1000 µM | 32.9 ± 0.7% | 45.2 ± 0.9% | > 100 µM | 82.5 ± 1.5% | 74.5 ± 1.1% | 43.5 ± 0.8% | 47.6 ± 0.8%
C#CCN1CCN(Cc2ccc(C(=O)Nc3nc4cc(OC)ccc4s3)cc2)CC1 [4k, N-(5-Methoxybenzo[d]thiazol-2-yl)-4-((4-(prop-2-yn-1-yl)piperazine-1-yl)methyl)benzamide] | > 1000 µM | 26.4 ± 0.7% | 30.4 ± 0.7% | 0.124 ± 0.0058 µM |  | 35.4 ± 1% | 48.9 ± 1.3% | 77.7 ± 2.7% | 87.1 ± 3.2% | > 100 µM | 39.9 ± 0.8% | 58.6 ± 0.9% | 0.102 ± 0.0048 µM | 90.3 ± 1.5% |  |  | 
COc1ccc2sc(NC(=O)c3ccc(CN4CCN(C(C)C)CC4)cc3)nc2c1 [4l, 4-((4-Isopropylpiperazine-1-yl)methyl)-N-(5-methoxybenzo[d]thiazol-2-yl)benzamide] | > 1000 µM | 24.3 ± 0.7% | 38.1 ± 0.9% | > 100 µM |  |  |  |  |  | > 1000 µM | 34 ± 0.9% | 40.6 ± 0.9% | > 100 µM | 81.7 ± 1.3% | 77.9 ± 1.4% | 40.7 ± 0.9% | 48.1 ± 0.9%
COc1ccc2sc(NC(=O)c3ccc(CN4CCN(CCN(C)C)CC4)cc3)nc2c1 [4m, 4-((4-(2-(Dimethylamino)ethyl)piperazine-1-yl)methyl)-N-(5-methoxybenzo[d]thiazol-2-yl)benzamide] | > 1000 µM | 31.9 ± 0.8% | 42.4 ± 0.8% | 0.0567 ± 0.0022 µM | 0.199 ± 0.0088 µM | 53.6 ± 1% | 72.5 ± 2.2% | 88.9 ± 2% | 94.7 ± 2.1% | > 100 µM | 37.9 ± 0.8% | 61.3 ± 0.9% | 0.0278 ± 0.001 µM | 95.3 ± 1.2% |  |  | 
COc1ccc2sc(NC(=O)c3ccc(CN4CCN(CCCN(C)C)CC4)cc3)nc2c1 [4n, 4-((4-(3-(Dimethylamino)propyl)piperazine-1-yl)methyl)-N-(5-methoxybenzo[d]thiazol-2-yl)benzamide] | > 1000 µM | 30.4 ± 0.9% | 40.9 ± 0.9% | > 100 µM |  |  |  |  |  | > 100 µM | 38.8 ± 0.7% | 60.1 ± 0.8% | 0.0421 ± 0.0018 µM | 95.3 ± 1.7% | 70.3 ± 1.3% | 41 ± 0.9% | 
O=C(NCCN1CCOCC1)c1ccc(Cl)cc1 [Moc., moclobemide, reference compound] |  |  |  |  |  |  |  |  |  |  | 82.1 ± 2.7% | 94.1 ± 2.8% |  |  |  |  | 
